Results taken from ChEMBL document CHEMBL4359834 (J Med Chem, 2019).
Calls of active or inactive are those of the source. The calls are words filed in the database; no cut-off is given here.

Legend:
cells = conditions: Homo sapiens, A2058, 1 h
Description: Inhibition of Class 1 PI3K/mTOR in human A2058 cells assessed as reduction in S6 phosphorylation at Ser235/236 residue incubated for 1 hr by InCell Western assay

[1] = target: Serine/threonine-protein kinase mTOR (Homo sapiens, UniProt P42345); assay: Displacement of Alexafluor labelled kinase tracer314 from recombinant human C-terminal GST-tagged mTOR (1360 to 2549 amino acids) expressed in insect cells incubated for 1 hr by FRET-based LanthaScreen Eu kinase binding assay
[2] = target: Phosphatidylinositol 4,5-bisphosphate 3-kinase catalytic subunit alpha isoform (Homo sapiens, UniProt P42336); assay: Displacement of Alexafluor labelled kinase tracer314 from recombinant N-terminal His6-tagged PI3K p110alpha (unknown origin) incubated for 1 hr by FRET-based LanthaScreen Eu kinase binding assay
Sequence of Phosphatidylinositol 4,5-bisphosphate 3-kinase catalytic subunit alpha isoform (P42336 whole entry, canonical isoform): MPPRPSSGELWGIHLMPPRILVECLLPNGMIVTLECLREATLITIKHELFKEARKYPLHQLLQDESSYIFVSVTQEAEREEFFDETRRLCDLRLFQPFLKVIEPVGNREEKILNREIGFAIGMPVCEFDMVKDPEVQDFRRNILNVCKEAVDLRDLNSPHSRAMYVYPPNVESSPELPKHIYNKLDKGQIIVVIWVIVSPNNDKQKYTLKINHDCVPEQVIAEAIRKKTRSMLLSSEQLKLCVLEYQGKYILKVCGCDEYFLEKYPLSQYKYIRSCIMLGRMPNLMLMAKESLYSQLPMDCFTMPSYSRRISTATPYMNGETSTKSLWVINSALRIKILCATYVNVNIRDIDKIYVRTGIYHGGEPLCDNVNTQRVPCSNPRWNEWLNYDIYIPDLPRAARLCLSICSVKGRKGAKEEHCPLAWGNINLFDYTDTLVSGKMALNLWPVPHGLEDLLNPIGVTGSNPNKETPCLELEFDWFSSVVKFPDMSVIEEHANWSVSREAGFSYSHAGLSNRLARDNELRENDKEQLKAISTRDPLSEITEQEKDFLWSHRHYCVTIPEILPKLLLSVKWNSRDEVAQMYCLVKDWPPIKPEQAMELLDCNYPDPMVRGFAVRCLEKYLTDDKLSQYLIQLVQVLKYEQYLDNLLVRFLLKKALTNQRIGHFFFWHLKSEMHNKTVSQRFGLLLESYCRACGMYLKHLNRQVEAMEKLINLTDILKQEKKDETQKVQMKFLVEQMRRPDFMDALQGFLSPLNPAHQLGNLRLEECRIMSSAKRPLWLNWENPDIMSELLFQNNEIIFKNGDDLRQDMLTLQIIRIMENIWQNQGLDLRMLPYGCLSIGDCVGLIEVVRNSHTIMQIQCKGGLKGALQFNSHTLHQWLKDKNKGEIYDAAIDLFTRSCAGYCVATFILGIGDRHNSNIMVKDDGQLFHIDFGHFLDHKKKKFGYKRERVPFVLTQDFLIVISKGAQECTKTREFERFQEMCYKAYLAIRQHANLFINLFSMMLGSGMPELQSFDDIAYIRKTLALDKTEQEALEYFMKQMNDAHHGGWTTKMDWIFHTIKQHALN

[3] = Inhibition of Class 1 PI3K/mTOR in human A2058 cells assessed as reduction in Akt phosphorylation at Ser473 residue incubated for 1 hr by InCell Western assay; assay type: cell-based; conditions: A2058, 1 h
A2058 = assay: Antiproliferative activity against human A2058 cells at 5 to 0.02 uM after 72 hrs by […] staining based assay; assay type: functional, cell-based
SK-OV-3 = assay: Antiproliferative activity against human SKOV3 cells at 5 to 0.02 uM after 72 hrs by […] staining based assay; assay type: functional, cell-based
[4] = Half-life in rat hepatocytes; assay type: ADME, cell-based, Hepatocyte
[5] = Intrinsic clearance in mouse hepatocytes assessed per 10^6 cells; assay type: ADME, cell-based, Hepatocyte; conditions: read-out: CLH
[6] = Half-life in mouse hepatocytes; assay type: ADME, cell-based, Hepatocyte
[7] = Intrinsic clearance in dog hepatocytes assessed per 10^6 cells; assay type: ADME, cell-based, Canis lupus familiaris, Hepatocyte; conditions: read-out: CLH
[8] = Half-life clearance in human hepatocytes; assay type: ADME, cell-based, Hepatocyte
[9] = Intrinsic clearance in rat hepatocytes assessed per 10^6 cells; assay type: ADME, cell-based, Hepatocyte; conditions: read-out: CLH
[10] = Half-life in dog hepatocytes; assay type: ADME, cell-based, Canis lupus familiaris, Hepatocyte
[11] = Intrinsic clearance in human hepatocytes assessed per 10^6 cells; assay type: ADME, cell-based, Hepatocyte; conditions: read-out: CLH

SMILES: C[C@H]1COC[C@H](C)N1c1nc(-c2cnc(N)cc2C(F)(F)F)nc(N2CCOCC2)n1
- IC50 (cells): 0.126 µM
- Ki [1]: 0.0592 µM
- Ki [2]: 0.0152 µM
- IC50 [3]: 0.1 µM

SMILES: Nc1cc(C(F)(F)F)c(-c2nc(N3CCOCC3)nc(N3CC4CCC(C3)O4)n2)cn1
- IC50 (cells): 0.212 µM
- Ki [1]: 0.0478 µM
- Ki [2]: 0.031 µM
- IC50 [3]: 0.274 µM

SMILES: Nc1cc(C(F)(F)F)c(-c2nc(N3CCOCC3)nc(N3CCOCC3)n2)cn1
- Activity (A2058): Active
- Activity (SK-OV-3): Active

SMILES: O=c1ccc2ccc(O)cc2o1 [UMBELLIFERONE]
- half-life [4]: 11.1 min
- hepatocyte CLint [5]: 116 µL/min/1e6 cells
- half-life [6]: 11.9 min
- hepatocyte CLint [7]: 138 µL/min/1e6 cells
- half-life [8]: 21.1 min
- hepatocyte CLint [9]: 124 µL/min/1e6 cells
- half-life [10]: 10.2 min
- hepatocyte CLint [11]: 65.5 µL/min/1e6 cells

SMILES: C[C@@H]1COC[C@H](C)N1c1nc(-c2cnc(N)cc2C(F)(F)F)nc(N2CCOCC2)n1
- IC50 (cells): 0.135 µM
- Ki [1]: 0.0193 µM
- Ki [2]: 0.0274 µM
- IC50 [3]: 0.122 µM

SMILES: C[C@H]1COCCN1c1nc(-c2cnc(N)nc2C(F)F)cc(N2CCOCC2)n1
- IC50 (cells): 0.146 µM
- Ki [1]: 0.0153 µM
- Ki [2]: 0.0041 µM
- IC50 [3]: 0.0773 µM

SMILES: C[C@H]1COCCN1c1nc(-c2cnc(N)cc2C(F)(F)F)nc(N2CCOCC2)n1
- IC50 (cells): 0.0898 µM
- Ki [1]: 0.0255 µM
- Ki [2]: 0.0083 µM
- IC50 [3]: 0.196 µM

SMILES: Nc1cc(C(F)(F)F)c(-c2nc(N3CC4CCC(C3)O4)nc(N3CC4CCC(C3)O4)n2)cn1
- IC50 (cells): 0.691 µM
- Ki [1]: 0.177 µM
- Ki [2]: 0.731 µM
- IC50 [3]: 0.947 µM

SMILES: C[C@@H]1COCCN1c1nc(-c2cnc(N)cc2C(F)(F)F)nc(N2CCOC[C@H]2C)n1
- IC50 (cells): 1.12 µM
- Ki [1]: 0.171 µM
- Ki [2]: 0.684 µM
- IC50 [3]: 1.7 µM

SMILES: C[C@H]1COCCN1c1nc(-c2cnc(N)nc2C(F)F)nc(N2CCOCC2)n1
- IC50 (cells): 0.0639 µM
- Ki [1]: 0.0106 µM
- IC50 [3]: 0.0324 µM

SMILES: C[C@H]1COCCN1c1nc(-c2cnc(N)cc2C(F)(F)F)nc(N2CCOC[C@@H]2C)n1
- IC50 (cells): 0.283 µM
- Ki [1]: 0.137 µM
- Ki [2]: 0.0068 µM
- IC50 [3]: 0.248 µM

SMILES: CCOc1ccc2ccc(=O)oc2c1
- half-life [4]: 46.2 min
- hepatocyte CLint [5]: 74 µL/min/1e6 cells
- half-life [6]: 18.7 min
- hepatocyte CLint [7]: 163 µL/min/1e6 cells
- half-life [8]: 70 min
- hepatocyte CLint [9]: 30 µL/min/1e6 cells
- half-life [10]: 8.49 min
- hepatocyte CLint [11]: 20 µL/min/1e6 cells
